{
  "source": "patent US20190231707A1",
  "about": "“TRANSDERMAL DRUG DELIVERY DEVICE FOR DELIVERING OPIOIDS” (CHRONO THERAPEUTICS INC., priority 2016, published 2019)",
  "experiment": "Average cumulative delivery / flux across cadaver skin",
  "assay_type": "in vitro ADME",
  "conditions": "FIG. 15",
  "from_the_text": "The prodrug of Naltrexone with the PEG conjugation increased the molecular weight of the compound to be about 690 g/mole. […] The average flux for the Naltrexone was about 15.37 micrograms (μg) per hour per cm^2.",
  "data": [
    {"smiles": "O=C1CC[C@@]2(O)[C@H]3Cc4ccc(O)c5c4[C@@]2(CCN3CC2CC2)[C@H]1O5", "note": "[Naltrexone]", "values": [
      {"measurement": "average flux across the cadaver skin", "result": "about 15.37 micrograms (μg) per hour per cm^2"}
    ]}
  ]
}
